Data on 8 compounds can be found in ChEMBL document CHEMBL3045263, “Novel 2-thiopyrimidine derivatives as CDK2 inhibitors: molecular modeling, synthesis, and anti-tumor activity evaluation” (Med Chem Res, 2013).

The experiment concerns HeLa. Put plainly: Antitumor activity against Homo sapiens (human) HeLa cells assessed as inhibition of cell proliferation after 48 hr by SRB assay. The class given is functional, cell-based. (Sulforhodamine B stains cellular protein and so reports cell mass.)
What is called IC50 is the midpoint of a concentration-inhibition curve. As to `COc1ccc(-c2nc(Nc3ccc(S(N)(=O)=O)cc3)n3c(=O)[nH]nc3c2C#N)cc1OC`, the IC50 was 0.047 µM. With `CCOC1=NN(c2nc(Nc3ccc(S(N)(=O)=O)cc3)nc(-c3ccc(OC)c(OC)c3)c2C#N)C(=O)C1`, the IC50 is 0.042 µM. The figure for `COc1cccc2c1C(=O)c1c(O)c3c(c(O)c1C2=O)C[C@@](O)(C(=O)CO)C[C@@H]3O[C@H]1C[C@H](N)[C@H](O)[C@H](C)O1` [DOXORUBICIN] is 0.016 µM; for `COc1ccc(C2=C(C#N)C3=NCC(=O)N3C(Nc3ccc(S(N)(=O)=O)cc3)=N2)cc1OC` it is 0.042 µM; for `COc1ccc(-c2nc(Nc3ccc(S(N)(=O)=O)cc3)nc(-n3nc(C)cc3C)c2C#N)cc1OC` it is 0.041 µM. With `COc1ccc(-c2nc(Nc3ccc(S(N)(=O)=O)cc3)n3c(C)nnc3c2C#N)cc1OC` the figure was 0.048 µM. The figure for `COc1ccc(-c2nc(Nc3ccc(S(N)(=O)=O)cc3)nc(N3N=C(C)CC3=O)c2C#N)cc1OC` is 0.046 µM. For `COc1ccc(-c2nc(Nc3ccc(S(N)(=O)=O)cc3)n3nnnc3c2C#N)cc1OC`, the IC50 worked out at 0.039 µM.
